The source of these data is patent publication US20180289692A1, “TLR MODULATORS AND METHODS OF USE” (CELGENE CORPORATION, priority 2015, published 2018).

Oligonucleotides are written 5' to 3', each unit as a sugar letter and its base; * is a phosphorothioate linkage, no mark a phosphodiester; rarer units and linkages stand in square brackets, end groups in braces. Plain capitals give the bases only. d = 2'-deoxy (DNA); m = 2'-O-methyl

The test system of series [1] is human pDCs. Briefly: Surface ICOS-L and PD-L1 expression in CCR6+CD123+ human pDCs by FACS. Format: cell-based. Particulars: for increase of COMPOUND (I) induced ICOS-L expression by HCQ: primary human pDCs. On the procedure: To evaluate surface ICOS-L, PD-L1 expression in the CCR6+CD123+ pDC cell subsets, PBMCs were incubated on ice in the presence of Fc-Block (BD Pharmingen) for 20 minutes, washed, and incubated with antibodies specific for surface molecules or isotype-matched control mAbs. APC-labeled anti-human ICOS-L mAb were purchased from BioLegend, PECY-7-labeled anti-human CCR6 mAb, FITC-labeled anti-human PD-L1 mAb and PerCP-Cy5.5 labeled anti-human CD123 mAb were purchased from BD Biosciences. The stained cells were then subjected to FACS (FACSCanto, BD Biosciences) using FACSDiva software. FACS analysis was performed using FlowJo software. Single, viable cells in the CCR6+CD123+ pDC gates were analyzed. The flow cytometric results are expressed as the percentage and MFI of ICOSL-, or PD-L1-expressing cells in each gate.
pDCs were isolated and ICOS-L expression was analyzed as described in Example 2.
(In general: Flow cytometry measures light scatter and fluorescence of single cells or particles in a stream.)

Series [2] relates to human PBMCs. In words: Cytokine production by human PBMCs treated with ODNs, MagPix Multi-Plex. Type of series: cell-based. Particulars: human PBMC, 24 hrs. On the procedure: PBMC from 3 donors were isolated from Buffy Coat (Blood Center of NY). The cells were washed with PBS and re-suspended in RPMI-1640 Media with 5% Human AB Serum, 1% Pen/Strep and 2 mM L-glutamine. The cells were then plated in 96-well plates at 250,000 cells/well. […] After 24 hrs, the supernatant was harvested and tested for cytokine production using MagPix Multi-Plex Technology. The following cytokines were tested: IL-6, IL-10, IL-12p40, IFN-α, IFN-γ, IP-10, IL-1β and TNF-α.

Series [3] has as its system canonical NF-κB promoter reporter. In words: Canonical NF-κB promoter reporter construct in RAW264.7 macrophage cells (FIG. 10). Particulars: 24 hrs. Format: cell-based, mouse. On the procedure: Mouse RAW264.7 macrophage cells containing a reporter construct driven by a canonical NF-κB promoter were plated in 96-well plates at 50,000 cells/well. […] The supernatant was harvested and tested for optical density.

Series [4] concerns human pDCs. Briefly: Intracellular IL-10, TGF-β1 and IDO expression in CCR6+CD123+ human pDCs by FACS. Type of series: cell-based. Particulars: 24 hrs, FIG. 2A. An excerpt: To evaluate intracellular IL-10, TGFβ 1 and IDO expression in human pDCs, the cells were first stained with PECY-7-labeled anti-human CCR6 mAb (BD Biosciences), PerCP-Cy5.5 labeled anti-human CD123 mAb (BD Biosciences). Stained cells were then fixed and permeabilized using a Cytofix/Cytoperm kit (BD Biosciences) according to the manufacturer's instructions and stained with PE-labeled anti-human IDO (Biolegend), APC-labeled anti-human IL-10 mAb and FITC-labeled anti-human TGF-β1 (BD Biosciences), or isotype-matched control mAbs. The stained cells were acquired by FACSCanto using the FACSDiva software. FACS analysis was performed using FlowJo software. Single, viable cells in the CCR6+CD123+ pDC gates were analyzed. The flow cytometric results are expressed as the percentage and MFI of IL-10-, TGF-β1- or IDO-expressing cells in each gate. Results are expressed as the mean±SEM of cells quantified.
IL10 was alternatively measured in cellular supernatants by ELISA using standard protocols.

The test system of series [5] is canonical NF-κB promoter reporter. In words: Mouse Raw Blue Reporter Cells, SEAP reporter driven by canonical NF-κB promoter (FIG. 11). Type of series: cell-based. Particulars: mouse macrophages, 24 hrs; for activation of canonical NF-κB reporter: SEAP, COMPOUND (I) up to 10 μM. As for the experimental part: Mouse Raw Blue Reporter Cells (Invivogen), containing a secreted embryonic alkaline phosphatase (SEAP) reporter gene driven by canonical NF-κB promoter, were plated in 96-well plates at 50,000 cells/well in DMEM Media supplemented with 10% FBS, 2 mM L-glutamine, 1% Pen/Strep, […] Normacin. […] The supernatant was harvested and tested for SEAP production by measuring OD at 630 nm.

In series [6] the target is T1, TLR9 (Homo sapiens, UniProt Q9NR96).
T1 construct: expressed in transfected cells; host or cells: TLR9 expressing HEK293 reporter cells with a human NF-κB reporter construct
T1 sequence (Q9NR96 26-1032): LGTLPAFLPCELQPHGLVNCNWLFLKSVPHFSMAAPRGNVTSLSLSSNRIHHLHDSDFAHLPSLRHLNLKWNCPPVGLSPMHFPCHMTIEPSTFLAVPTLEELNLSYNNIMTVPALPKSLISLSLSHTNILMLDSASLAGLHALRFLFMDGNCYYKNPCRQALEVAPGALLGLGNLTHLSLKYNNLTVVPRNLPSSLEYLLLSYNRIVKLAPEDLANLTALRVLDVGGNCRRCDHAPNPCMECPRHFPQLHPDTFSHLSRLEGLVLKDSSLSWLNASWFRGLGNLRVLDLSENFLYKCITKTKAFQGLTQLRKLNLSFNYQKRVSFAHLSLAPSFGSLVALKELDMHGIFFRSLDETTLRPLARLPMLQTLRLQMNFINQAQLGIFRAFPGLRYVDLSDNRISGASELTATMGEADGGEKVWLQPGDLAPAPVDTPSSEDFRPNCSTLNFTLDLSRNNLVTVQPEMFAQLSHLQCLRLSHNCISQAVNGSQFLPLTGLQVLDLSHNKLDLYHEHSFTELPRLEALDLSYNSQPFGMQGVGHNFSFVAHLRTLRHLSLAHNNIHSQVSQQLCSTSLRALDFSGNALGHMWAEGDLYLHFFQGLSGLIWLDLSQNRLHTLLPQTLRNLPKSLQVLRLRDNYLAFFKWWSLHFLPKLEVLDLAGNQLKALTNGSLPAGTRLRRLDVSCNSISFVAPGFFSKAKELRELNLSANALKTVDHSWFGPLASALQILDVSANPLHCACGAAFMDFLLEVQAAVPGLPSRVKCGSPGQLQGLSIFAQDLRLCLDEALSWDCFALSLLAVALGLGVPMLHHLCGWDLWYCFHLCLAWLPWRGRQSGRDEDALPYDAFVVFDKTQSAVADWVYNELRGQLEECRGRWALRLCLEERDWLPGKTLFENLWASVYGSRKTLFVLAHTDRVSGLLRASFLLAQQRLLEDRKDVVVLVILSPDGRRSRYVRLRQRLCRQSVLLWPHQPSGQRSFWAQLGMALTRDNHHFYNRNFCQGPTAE
Briefly: NF-κB reporter gene in recombinant TLR9-expressing HEK293 cells. Format: cell-based. Particulars: TLR9-expressing HEK293 cells, FIG. 16A. On the procedure:
FIGS. 16A-B show results of experiments in which recombinant TLR-expressing HEK293 cells carrying an NF-κB reporter gene were incubated with COMPOUND(I), ODN150, ODN2006, or ODN7040 for 48 hours at the indicated concentrations.
(In general: A reporter such as luciferase makes a cellular process visible.)

The subject of series [7] is mouse macrophages. Briefly: TNFα and IL-10 production in mouse macrophages (Raw Blue cells), MagPix. Type of series: cell-based. As to conditions: 24 hrs. On the procedure: Mouse Raw Blue Reporter Cells (Invivogen) were plated in 96-well plates at 50,000 cells/well in DMEM Media supplemented with 10% FBS, 2 mM L-glutamine, 1% Pen/Strep, […] Normacin. […] The supernatant was harvested and tested for TNFα and IL-10 production using MagPix Multi-Plex technology.

For the molecule “ODN302: 5′-GTCGCTCTTCTCCTCCGCCAG-3′, fully PS; scrambled (non-SMAD7 AON) control sequence with two CG sequences (DNA dG*dT*dC*dG*dC*dT*dC*dT*dT*dC*dT*dC*dC*dT*dC*dC*dG*dC*dC*dA*dG)”, the PD-L1 protein induction entry in series [1] (human pDCs, 24 hrs, FIG. 2B) is “can induce”. In series [2] (high-dose ODN 10 μM), this molecule displayed an IFN-γ of 9.7 pg/mL, an IL-1β of 3.9 pg/mL, an IL-6 of 41 fold change and an IL-10 of 1.5 fold change. Besides, in series [2] (high-dose ODN 10 μM), the IL-12p40 was determined as 5.2 pg/mL, the IP10 worked out at 4.4 fold change and the TNF-α is 9.3 fold change. In series [2] (low-dose ODN 0.1 μM), this molecule returned an IFN-γ of 1.5 pg/mL, an IL-1β of 0.2 pg/mL, an IL-6 of 19 fold change and an IL-10 of 1.5 fold change. Also, in series [2] (low-dose ODN 0.1 μM), the IL-12p40 was 0.7 pg/mL, the IP10 is listed as 13.9 fold change and the TNF-α came to 2.4 fold change. Moreover, the “activation of the NF-κB construct” value in series [3] (0.1-100 μM) is given as “Moderate activation”. Further, the “ODN concentration at which activation of the NF-κB construct was observed” value in series [3] is “about 1 μM”. Besides, the TGF-β1 protein induction entry in series [4] is listed as “can induce”.

Turning to “ODN150C: 5′-G*G*A*ACAGTTAGTCCATa*G*G*C-3′, PO except * = PS; control lacking CG-dinucleotide sequences (DNA GGAACAGTTAGTCCATGGC; listed as DNA, chemistry not fully specified)”, the “activation of canonical NF-κB reporter” value in series [5] is recorded as “did not activate”. In series [2] (high-dose ODN 10 μM), the IFN-γ amounted to 0.1 pg/mL, the IL-1β is 0.3 pg/mL, the IL-6 came to 1.4 fold change and the IL-10 turned out to be 1 fold change. In series [2] (high-dose ODN 10 μM), the IL-12p40 amounted to 0 pg/mL, the IP10 is given as 1.5 fold change and the TNF-α is reported as 1.4 fold change. In series [2] (low-dose ODN 0.1 μM), this molecule returned an IFN-γ of 0.1 pg/mL, an IL-1β of 0.2 pg/mL, an IL-6 of 1.2 fold change and an IL-10 of 1 fold change. Besides, in series [2] (low-dose ODN 0.1 μM), the IL-12p40 worked out at 0 pg/mL, the IP10 worked out at 1 fold change and the TNF-α came to 1.2 fold change.

Turning to `CCN(CCO)CCCC(C)Nc1ccnc2cc(Cl)ccc12` (stereo not shown) [HCQ, hydroxychloroquine], the “increase of COMPOUND (I) induced ICOS-L expression by HCQ” value is recorded as 7.3 fold in series [1] (HCQ 10 μM + COMPOUND (I) 1 μM, FIG. 6A); 2.0 fold in series [1] (HCQ 10 μM + COMPOUND (I) 1 μM, FIG. 6B); 7.1 fold in series [1] (HCQ 10 μM + COMPOUND (I) 10 μM, FIG. 6A); 1.9 fold in series [1] (HCQ 10 μM + COMPOUND (I) 10 μM, FIG. 6B). Also, in series [1] (human pDCs, COMPOUND (I) 1 μM and 10 μM by itself, HCQ 10 μM alone), the “ICOS-L expression, agent alone” value is on record as “did not induce measurable levels”. For the same molecule, the “effect on COMPOUND (I) activity on NF-κB reporter gene” value in series [6] is given as “inhibited”.

Consider “ODN7040C: 5′-CTGCCAAGTTCACCTGCA*C*C*-3′, PO; * = 2′OMe; control lacking CG-dinucleotide sequences (DNA dCdTdGdCdCdAdAdGdTdTdCdAdCdCdTdGdCmAmCmC)”, for which the “activation of canonical NF-κB reporter” value in series [5] is “did not activate”. In series [2] (high-dose ODN 10 μM), this molecule gave an IFN-γ of 0.2 pg/mL, an IL-1β of 0.5 pg/mL, an IL-6 of 2.1 fold change and an IL-10 of 1 fold change. For the same molecule, in series [2] (high-dose ODN 10 μM), the IL-12p40 was found to be 0.1 pg/mL, the IP10 is recorded as 1.4 fold change and the TNF-α turned out to be 1.4 fold change. In addition, in series [2] (low-dose ODN 0.1 μM), the IFN-γ was found to be 0.2 pg/mL, the IL-1β amounted to 0.6 pg/mL, the IL-6 is listed as 1.2 fold change and the IL-10 stood at 1 fold change. In series [2] (low-dose ODN 0.1 μM), this molecule registered an IL-12p40 of 0.1 pg/mL, an IP10 of 1.1 fold change and a TNF-α of 1.1 fold change.

For ODN1826, in series [5], the “concentration from which the NF-κB reporter is activated” value is at most 0.01 µM and the “activation of canonical NF-κB reporter” value is reported as “potent activator”. The TNFα protein expression result in series [7] (FIG. 12, COMPOUND (I) up to 10 μM) is “induce”. In series [7] (FIG. 13, COMPOUND (I) up to 10 μM), the IL-10 protein expression result is reported as “induce”.
